The structures appear in SMILES notation. Starred links: 1 amine or outer side, 2 acyl side, 3 side chain; linkers in the order of their positions; H or OH if unused. Positions of bridges follow the written chain, without caps; N, C: chain ends. Residues, ends and D or L forms follow the SMILES beside them. *: point of attachment. X1 = O=C(COCC(=O)*)NCCOCCOCCOCCOCCOCCNC(=O)CSCCCF; CH2 = C([*:1])[*:2]

The assay addresses T1, ανβ3 integrin receptor (Homo sapiens, UniProt P05106+P06756).
T1 construct: Using cell membrane preparations known to express the ανβ3 integrin receptor; endogenous in cells
Nature of the assay: competitive binding with 125I-echistatin on cell membrane preparations. As to conditions: cell membrane preparations expressing ανβ3 integrin receptor; 125I-echistatin as radioligand; Ki calculated using Prism software. The protocol: Using cell membrane preparations known to express the ανβ3 integrin receptor, competitive binding studies were carried out using ^125I-echistatin and the F-labelled peptides as competing ligand. Binding curves were obtained and Ki's calculated using Prism™ software.

A word on the Ki: it is a measure of affinity in units of concentration, obtained from inhibition or displacement. For the molecule `N=C(N)NCCC[C@@H]1NC(=O)[C@@H]2CSCSC[C@H](NC(=O)[C@H](CC(=O)O)NC(=O)CNC1=O)C(=O)N[C@@H](Cc1ccccc1)C(=O)N[C@H](C(N)=O)CSCC(=O)N[C@@H](CCCCNC(=O)COCC(=O)NCCOCCOCCOCCOCCOCCNC(=O)CSCCCF)C(=O)N2` [Example 1] ({CH2CO}-K(X1)CRGDCFC-NH2; linker 2-6 via CH2; thioether N-8), the inhibition constant Ki is 7 nM.

The values above are taken from US7811551B2, “Imaging agents” (GE Healthcare AS, priority 2003, dated 2010).
